Test results as given in PubChem BioAssay (NCI).
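Assay format: 96-well plates, 48-hour exposure. GI50 is the concentration that inhibits growth by half. TGI marks complete inhibition of growth.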

What was measured:
Test in all cases: NCI anticancer screen, dose series, 48 h
[1] = system: EKVX NSCLC
[2] = system: HT29 colon
[3] = system: A549 NSCLC
[4] = system: SF-295 CNS
[5] = system: U251 CNS
[6] = system: SR leukemia
[7] = system: T-47D breast
[8] = system: DU-145 prostate
[9] = system: PC-3 prostate
[10] = system: NCI/ADR-RES ovarian

SMILES	TGI [1] [µM]	TGI [2] [µM]	TGI [3] [µM]	TGI [4] [µM]	TGI [5] [µM]	TGI [6] [µM]	GI50 [1] [µM]	GI50 [7] [µM]	TGI [7] [µM]	GI50 [8] [µM]	TGI [8] [µM]	GI50 [2] [µM]	GI50 [9] [µM]	TGI [9] [µM]	GI50 [3] [µM]	GI50 [5] [µM]	GI50 [10] [µM]	TGI [10] [µM]	GI50 [4] [µM]
CS(=O)(=O)N(CCC#N)c1ccc(/C=N/NC(=O)CC(=O)Nc2cccc(Cl)c2)cc1	> 100	> 100	> 100	> 100	> 100														
COc1ccc(S(=O)(=O)N/N=C/CN2C(=O)c3ccccc3C2=O)cc1OC	> 100	> 100	> 100	> 100	> 100	> 100													
CC(C)COC(=O)N1N=NC2C3OC(CC3=O)C21 (configuration not stated)	> 100	> 100		> 100	> 100	> 100													
C=CCC12CCC(=O)C=C1CCC1(C2)OCCO1 (configuration not stated)	> 100		> 100		> 100	> 100													
CCOC(=O)C(=O)C1C(=O)Nc2ccccc21 (configuration not stated)	> 100	> 100	> 100	> 100	> 100														
Cc1ccc2c[c]1[Hg][CH2]COS2(=O)=O	38.5	31.8	> 100		31.3		21.5	15	29.7	18.8	32.8	17.9	18.3	32.4	> 100	17.5	25	62.1	
Oc1ccc2occ3c2c1CCC3	> 100	> 100	> 100	> 100	> 100														
COc1cc2c(c(OC)c1OC)-c1ccc(NNC(=S)N(Cc3cccc(C[N+](Cc4cccc(CNC56CC7CC(CC(C7)C5)C6)c4)(Cc4cccc(CNC56CC7CC(CC(C7)C5)C6)c4)Cc4cccc(CN(C(=S)NNc5ccc6c(cc5=O)[C@@H](NC(C)=O)CCc5cc(OC)c(OC)c(OC)c5-6)C56CC7CC(CC(C7)C5)C6)c4)c3)C34CC5CC(CC(C5)C3)C4)c(=O)cc1[C@@H](NC(C)=O)CC2 (some centres not stated)	8.46	2.81	6	5.92			2.68	1.83	9.4	2.46	7.1	0.958	1.45	5.64	1.61		5.43	12.5	1.53
COC(=O)Nc1nc2ccc(Oc3ccc(NC(=O)Nc4cccc(Br)c4)cc3)cc2[nH]1	> 25	3.28	> 13.4	> 19.2	5.68		8.28	2.17	> 16.7	3.15	> 14.6	0.7	1.85	> 12.7	4.24	1.78	> 6.8	> 25	1.18
CC1=C(C)CC2(SC1)C(=O)c1ccccc1C2=O		> 100	> 100	> 100	> 100	> 100													
O=C(O)CNS(=O)(=O)c1ccc(NC(=O)c2ccc(F)cc2)cc1	> 100	> 100	> 100	> 100	> 100														
COc1cc2c(cc1OCCCOC1=C=C=C(c3ccc4c(c3)c3cc(-c5ccc(OCCCOc6cc7c(cc6OC)C(=O)N6CCC[C@H]6C=N7)cc5)ccc3n4S(=O)(=O)c3ccc(C)cc3)C=C1)N=C[C@@H]1CCCN1C2=O	22.9	> 20.5	20.5	4.62	2.87		9.35	1.3	19.1	1.13	2.73	1.44	1.27	> 28.9	6.7	0.966	> 26.1	> 50	1.14
CCN(CC)CC(=O)/C=C/c1ccc(C)cc1		45.1	60.8	88.1	30.1	78.8													
CCN(CC)c1ccc(N=C2C=CC(=O)c3ncccc32)c(C)c1	30.4	29.2	26.1	22.9	19.6	6.51													
CC1=C(SCc2ccccc2)C(=O)c2ccccc2C1=O	44	90.2		32.5	33.5				> 100		34.9			37.3				61.1	
CC1CCC2(NC1)OC1CC3[C@@H]4CC=C5C=CCC[C@]5(C)C4CC[C@]3(C)C1C2C (some centres not stated)	55.5	32.1	58.5	52.8	88.7														
Cc1[nH]c(C(=O)Nc2ccc(C(=O)N3CCNCC3)cc2OC(C)C)c(Cl)c1Cl	15	3.26		3.68	3.46		3.49	1.91	4.62	2.06	4.06	1.76	2.02	5.44		1.77	2.25	5.58	1.89
C[N+](C)([O-])CCCNc1c2ccccc2nc2cccc([N+](=O)[O-])c12	0.901	0.606	0.795	15	2.24				3.62		1.49			1.26				75.6	
O=c1[nH]c(-c2ccccc2)nc2ccc(Cl)cc12	> 100	> 100	> 100	> 100	> 100	> 100													
OCCCCC#Cc1ccccc1C#Cc1ccccc1F	94.4	> 100	34.5	42.7	33.6		29.4	16.1	42.6	35.7	> 100	52	20	48.2	15.7	16	21.1	46.7	21.6
O=c1[nH]c(=O)n(C2CC(O)C(CO)O2)cc1C(OCC(F)(F)F)OCC(F)(F)F (configuration not stated)	> 100	> 100	> 100	> 100	> 100														
CC(=O)NC1=C(C)C(=O)c2c(nc3n2CCC3O)C1=O (configuration not stated)	51.4	> 100	> 100	> 100	> 100	35													
OCCN(CCO)c1cccc(N(CCO)CCO)c1	> 100		> 100	> 100	> 100	> 100													
